Test results from ChEMBL document CHEMBL5625208, “Tumor selective self-assembled nanomicelles of carbohydrate-epothilone B conjugate for targeted chemotherapy” (Eur J Med Chem, 2023).
Active and inactive are the calls of the source. No cut-off for these calls is given here.

Assays:
HepG2 = assay: Antiproliferative activity against human HepG2 cells assessed as reduction in cell viability after 72 hrs by MTT assay; format: functional, cell-based
NCI-H460 = assay: Antiproliferative activity against human NCI-H460 cells assessed as reduction in cell viability after 72 hrs by MTT assay; format: functional, cell-based
MCF7 [1] = assay: Antiproliferative activity against human MCF7 cells assessed as reduction in cell viability after 72 hrs by MTT assay; format: functional, cell-based
NCI-460/Taxol = assay: Antiproliferative activity against human NCI-460/taxol cells assessed as reduction in cell viability after 72 hrs by MTT assay; format: functional, cell-based
L02 = assay: Cytotoxicity against human HL7702 cells incubated for 72 hrs by MTT assay; format: toxicity, cell-based; conditions: l02, 72 h
BEAS-2B = assay: Cytotoxicity against human BEAS-2B cells incubated for 72 hrs by MTT assay; format: toxicity, cell-based
MCF7 [2] = assay: Antiproliferative activity against human MCF7 cells assessed as reduction in cell viability preincubated for with NEM for 1 hr followed by compound addition by xCELLigence real time analysis; format: functional, cell-based
MCF7 [3] = assay: Antiproliferative activity against human MCF7 cells assessed as reduction in cell viability at 1 to 1000 nM preincubated for with NEM for 1 hr followed by compound addition and measured after 72 hrs by MTT assay; format: functional, cell-based; conditions: dose 1-1000 nM
MCF7 [4] = assay: Antiproliferative activity against human MCF7 cells assessed as reduction in cell viability at 1 to 1000 nM preincubated for with rhamnose for 1 hr followed by compound addition and measured after 72 hrs by MTT assay; format: functional, cell-based; conditions: dose 1-1000 nM
[5] = Stability in mouse plasma; format: ADME, cell-free
MCF7 [6] = assay: Antitumor activity against human MCF7 cells xenografted in mouse assessed as reduction in tumor growth at 3.2 to 6.4 mg/kg, ip administered every 3 days for 3 times and measured after 14 days; format: functional, organism-based; conditions: dose 3.2-6.4 mg/kg, time 14.0 day
MCF7 [7] = assay: Antitumor activity against human MCF7 cells xenografted in mouse assessed as reduction in tumor weight at 3.2 to 6.4 mg/kg, ip administered every 3 days for 3 times and measured after 14 days; format: functional, organism-based; conditions: dose 3.2-6.4 mg/kg, time 14.0 day
[8] = Toxicity in mouse xenografted with human MCF7 cells assessed as reduction in body weight at 3 mg/kg, ip administered every 3 days for 3 times and measured after 14 days; format: organism-based; conditions: in vivo, 336 h, time 14 day
[9] = Toxicity in mouse xenografted with human MCF7 cells at 3 mg/kg, ip administered every 3 days for 3 times and measured after 14 days; format: organism-based; conditions: in vivo, 336 h, time 14 day
[10] = Toxicity in mouse xenografted with human MCF7 cells assessed as animal death at 3.2 mg/kg, ip administered every 3 days for 3 times and measured after 14 days; format: organism-based; conditions: in vivo, 336 h, time 14 day
[11] = Toxicity in mouse xenografted with human MCF7 cells assessed as change in body weight at 3.2 mg/kg, ip administered every 3 days for 3 times and measured after 14 days; format: organism-based; conditions: in vivo, 336 h, time 14 day
MCF7 [12] = assay: Antitumor activity against human MCF7 cells xenografted in mouse assessed as appearance of intracellular space dilatation in tumor cells at 3.2 to 6.4 mg/kg, ip administered every 3 days for 3 times measured after 14 days by H and E staining based assay; format: functional, organism-based; conditions: dose 3.2-6.4 mg/kg, time 14.0 day
MCF7 [13] = assay: Antitumor activity against human MCF7 cells xenografted in mouse assessed as appearance of small cavities in tumor cells at 3.2 to 6.4 mg/kg, ip administered every 3 days for 3 times measured after 14 days by H and E staining based assay; format: functional, organism-based; conditions: dose 3.2-6.4 mg/kg, time 14.0 day
MCF7 [14] = assay: Antitumor activity against human MCF7 cells xenografted in mouse assessed as reduction in PCNA positive cells at 3.2 to 6.4 mg/kg, ip administered every 3 days for 3 times measured after 14 days by H and E staining based assay; format: functional, organism-based; conditions: dose 3.2-6.4 mg/kg, time 14.0 day
[15] = Toxicity in mouse xenografted with human MCF7 cells assessed as spleen damage at 3.2 mg/kg, ip administered every 3 days for 3 times and measured after 14 days; format: organism-based; conditions: in vivo, 336 h, time 14 day
[16] = Toxicity in mouse xenografted with human MCF7 cells assessed as kidney damage at 3.2 mg/kg, ip administered every 3 days for 3 times and measured after 14 days; format: organism-based; conditions: in vivo, 336 h, time 14 day
[17] = Prodrug release in DTT at pH 7.4 after 12 hrs by HPLC analysis; format: ADME; conditions: pH 7.4, 12 h
[18] = Prodrug release in DTT at pH 7.4 assessed as Epothilone B release after 12 hrs by HPLC analysis; format: ADME; conditions: pH 7.4, 12 h
[19] = Prodrug release in PBS at pH 7.4 assessed as Epothilone B release in presence of different concentrations of DTT by HPLC analysis; format: ADME; conditions: buffer
[20] = Toxicity in mouse xenografted with human MCF7 cells assessed as animal death at 3 mg/kg, ip administered every 3 days for 3 times and measured on day 8; format: organism-based; conditions: in vivo, 192 h, time 8 day
MCF7 [21] = assay: Antitumor activity against human MCF7 cells xenografted in mouse assessed as appearance of intracellular space dilatation in tumor cells at 1.5 to 3 mg/kg, ip administered every 3 days for 3 times measured after 14 days by H and E staining based assay; format: functional, organism-based; conditions: dose 1.5-3 mg/kg, time 14.0 day
MCF7 [22] = assay: Antitumor activity against human MCF7 cells xenografted in mouse assessed as appearance of small cavities in tumor cells at 1.5 to 3 mg/kg, ip administered every 3 days for 3 times measured after 14 days by H and E staining based assay; format: functional, organism-based; conditions: dose 1.5-3 mg/kg, time 14.0 day
MCF7 [23] = assay: Antitumor activity against human MCF7 cells xenografted in mouse assessed as reduction in PCNA positive cells at 1.5 to 3 mg/kg, ip administered every 3 days for 3 times measured after 14 days by H and E staining based assay; format: functional, organism-based; conditions: dose 1.5-3 mg/kg, time 14.0 day

Q: With `C/C(=C\c1csc(C)n1)[C@@H]1C[C@@H]2O[C@]2(C)CCC[C@H](C)[C@H](OC(=O)OCCSSCCOCc2cn(CCOCCOCCOCCO[C@@H]3O[C@@H](C)[C@H](O)[C@@H](O)[C@H]3O)nn2)[C@@H](C)C(=O)C(C)(C)[C@@H](O)CC(=O)O1` as the molecule, how does the Activity (HepG2) read?
A: Active

Q: What about the Activity (NCI-H460) of the same molecule?
A: Active

Q: And the Activity (MCF7 [1])?
A: Active

Q: And the Activity (NCI-460/Taxol)?
A: Active

Q: And the Activity (L02)?
A: Non-Toxic

Q: What about the Activity (BEAS-2B) of the same molecule?
A: Non-Toxic

Q: What about the Activity (MCF7 [2]) of the same molecule?
A: inactive

Q: What about the Activity (MCF7 [3]) of the same molecule?
A: inactive

Q: What about the Activity (MCF7 [4]) of the same molecule?
A: inactive

Q: And the Stability [5]?
A: Stable

Q: And the Activity (MCF7 [6])?
A: Active

Q: What about the Activity (MCF7 [7]) of the same molecule?
A: Active

Q: What about the Activity [8] of the same molecule?
A: Non-Toxic

Q: What about the Activity [9] of the same molecule?
A: Non-Toxic

Q: What about the Activity [10] of the same molecule?
A: Non-Toxic

Q: What about the Activity [11] of the same molecule?
A: Non-Toxic

Q: What about the Activity (MCF7 [12]) of the same molecule?
A: Active

Q: And the Activity (MCF7 [13])?
A: Active

Q: And the Activity (MCF7 [14])?
A: Active

Q: And the Activity [15]?
A: Non-Toxic

Q: And the Activity [16]?
A: Non-Toxic

Q: And the Drug metabolism [17]?
A: Active

Q: What about the Drug metabolism [18] of the same molecule?
A: Active

Q: And the Drug metabolism [19]?
A: Not Active

Q: What does the source list for `C/C(=C\c1csc(C)n1)[C@@H]1C[C@@H]2O[C@]2(C)CCC[C@H](C)[C@H](OC(=O)OCCSSCCOCc2cn(CCOCCOCCOCCO[C@@H]3O[C@H](CO)[C@@H](O[C@@H]4O[C@@H](C)[C@H](O)[C@@H](O)[C@H]4O)[C@H](O)[C@H]3O[C@@H]3O[C@@H](C)[C@H](O)[C@@H](O)[C@H]3O)nn2)[C@@H](C)C(=O)C(C)(C)[C@@H](O)CC(=O)O1`?
A: Activity (HepG2): Active; Activity (NCI-H460): Active; Activity (MCF7 [1]): Active; Activity (NCI-460/Taxol): Active

Q: Which Drug metabolism [17] does the source give for `C/C(=C\c1csc(C)n1)[C@@H]1C[C@@H]2O[C@]2(C)CCC[C@H](C)[C@H](OC(=O)Cc2ccccc2SSCCC(=O)NCc2cn(CCOCCOCCOCCO[C@@H]3O[C@@H](C)[C@H](O)[C@@H](O)[C@H]3O)nn2)[C@@H](C)C(=O)C(C)(C)[C@@H](O)CC(=O)O1` here?
A: Active

Q: And the Drug metabolism [18]?
A: Not Active

Q: Which Activity (MCF7 [3]) does the source give for `C/C(=C\c1csc(C)n1)[C@@H]1C[C@@H]2O[C@]2(C)CCC[C@H](C)[C@H](O)[C@@H](C)C(=O)C(C)(C)[C@@H](O)CC(=O)O1` [PATUPILONE] here?
A: Active

Q: What about the Activity [8] of the same molecule?
A: Toxic

Q: And the Activity [20]?
A: Toxic

Q: What about the Activity (MCF7 [21]) of the same molecule?
A: Active

Q: What about the Activity (MCF7 [22]) of the same molecule?
A: Active

Q: What about the Activity (MCF7 [23]) of the same molecule?
A: Active
